“Also recorded” adds a separate entry of the source.
Experiments:
[1] = system: NCI-H460 human lung cancer cells; experiment: NCI-H460 lung cancer xenograft in BALB/c nude mice: tirapazamine plus vascular disrupting agent; assay type: in vivo, mouse; settings: combretastatin A4 10 mg/kg i.v. or DMXAA 20 mg/kg i.v., 3-5 min after tirapazamine 30 mg/kg i.p.
Experimental: Materials and methods: Human lung cancer NCI-H460 cells were purchased from ATCC and used in this study. Cells were sub-cultured within 5 passages before inoculated into the mice. After the animals' acclimation period, approximately 1.5×10^6 NCI-H460 cells in 200 μL of serum-free media/matrigel (50:50 v/v) were injected subcutaneously to each mouse under anesthesia with 3-4% isoflurane. BALB/c nude mice, male, about 4-5 weeks and 18-20 g in weight were purchased from Shanghai SLAC Laboratory Animal Co. Ltd., China and housed in vivarium in 3-5 mice/cage by treatment group. Mice had free access to food (irradiated, Shanghai SLAC Laboratory Animal Co. Ltd. China) and water (municipal tap water filtered by Mol Ultrapure Water System).
Mice from each group were euthanized with CO2 asphyxiation followed by cervical dislocation at day 18 after the first dose, tumors were collected, weighed, and their pictures taken. The formalin fixed tumors were used for histopathology work. After formalin fixation, the tumors were paraffin embedded to get FFPE blocks. One block was made for each tumor chunk from one mouse. The FFPE blocks were sectioned at about 4 μm thick and processed for H&E staining, histopathology examination, and quantification of tumor necrosis. Detailed results are discussed further below. […]

[2] = system: hepatocellular carcinoma (HCC) in HBx transgenic mice; experiment: Tirapazamine or doxorubicin plus left hepatic artery ligation (HAL) in tumor-bearing HBx transgenic mice: tumor necrosis by H&E histology; assay type: in vivo, mouse; settings: for necrosis of HCCs in the territory of the left HAL, Day 7 (H&E): tirapazamine 3 mg/kg (n=3) or doxorubicin 10 mg/kg (n=2) IV + left HAL 40 min; for necrosis in the HCC within the territory of HAL, Day 1 post-treatment: tirapazamine 3 mg/kg or doxorubicin 10 mg/kg IV tail vein + transient left HAL, n=1 per group, histopathology
Experimental: Materials and methods: All the HBx transgenic mice were bred and followed-up in a specific pathogen-free facility; the tails of individual mice were subsequently collected for the genotyping process on weaning at 3 weeks of age. […] Transgenic mice having tumors 0.5-2 cm in diameter were used for the study.
(§1) Treatment of tumor-bearing HBx mice with tirapazamine and hepatic artery ligation: The HBx transgenic mice were subjected to the left hepatic artery ligation for 40 min and the silk ligation was subsequently untied. During the studies on the drug effects, 0.9% saline, doxorubicin (10 mg/kg), or TPZ (3 mg/kg) were injected into the tail vein of each mouse for 7 min before the hepatic artery ligation. After completion of the injection, a midline laparotomy was performed to expose the left lobe of liver and liver hilum to dissect the left or common hepatic artery for transient ligation. All mice were anaesthetized with intraperitoneal injection of 400 mg/kg avertin (Sigma-Aldrich, St. Louis, Mo., USA) during experiments. Serial serum samples were collected for evaluating the ALT and total bilirubin by using ARKRAY Spotchem EZ Chemistry Analyzer SP-4430 (Arkray, Inc., Kyoto, Japan) within the first week. After 1 or 7 days, the liver tissues were collected for HE staining.
Histology and morphometric analysis of tumor necrosis: For each mouse, the liver tissue containing the whole tumor and the adjacent non-tumorous region were fixed overnight in 10% formaldehyde and embedded in paraffin. The liver tissue sections (3 μm thickness) crossing the whole tumor were subjected to hematoxylin and eosin (H&E) staining for histological analysis. The percentage of necrosis in each tumor was quantified by dividing the necrotic area by the total tumor area in five cross sections covering the whole tumor, by using the ImageJ software (Version 1.46r, National Institutes of Health, Bethesda, Md., USA).
The HBx transgenic mice spontaneously develop hepatocellular carcinoma at approximately 18 months. […] Next, the efficacy of tirapazamine in combination with HAL was investigated and compared with a commonly used chemotherapy agent, doxorubicin, in TACE. A small group was first tested to compare the effects of saline (n=1), doxorubicin (10 mg/kg, n=1) and tirapazamine (3 mg/kg, n=1) to treat HBx transgenic mice that had palpable HCC, along with transient left HAL. Mice were sacrificed 1 day after treatment with tirapazamine and transient left HAL.
The same study was conducted to examine the histopathology changes at 7 days post treatment. The number of mice used for each group were saline (n=2), doxorubicin (10 mg/kg, n=2) and tirapazamine (3 mg/kg, n=3).

[3] = mouse, in vivo
Experimental: as §1

hepatocellular carcinoma = experiment: Phase I dose-defining study of tirapazamine combined with trans-arterial embolization (TAE): efficacy by contrast MRI, modified RECIST; assay type: in vivo, human; settings: for response on contrast enhanced MRI at 6th week after embolization: individual patients/lesions treated with tirapazamine before TAE
Excerpt: (§2) In order to test the clinical tolerability and efficacy of tirapazamine combined with TAE in humans, a phase I dose-defining study was initiated in US major medical centers to examine the tolerability, preliminary efficacy and determine the recommended phase 2 dose (RP2D) of tirapazamine when combined with TAE. HCC patients enrolled were Child-Pugh class A, were not surgical candidates and had up to 4 tumor lesions with no tumor lesion size greater than 10 cm and were suitable for embolization. The results of the first 12 evaluable patients were available for analysis.
(§3) Three patients were enrolled in either cohort.
The preliminary efficacy of the first 12 patients was analyzed and is exemplified in FIG. 4. Efficacy outcome is read by contrast […] based on modified Response Evaluation Criteria In Solid Tumors (RECIST) criteria so that only the size of the viable tumor was measured. […] Three additional patients had over 30% necrosis or partial response (PR). The overall response rate (CR+PR) was 83%.

[4] = rat, in vivo
[5] = Phase I dose-defining study of tirapazamine combined with TAE: tolerability; assay type: in vivo, human; settings: 3 patients per cohort
Excerpt: as §2, §3

Cc1ccc2c(=O)c3cccc(CC(=O)O)c3oc2c1C [DMXAA, 5,6-Dimethylxanthenone-4-acetic acid]
effect on tumor vasculature [1]: nearly immediate shutdown of the tumor vasculature

COc1cccc2c1C(=O)c1c(O)c3c(c(O)c1C2=O)C[C@@](O)(C(=O)CO)C[C@@H]3O[C@H]1C[C@H](N)[C@H](O)[C@H](C)O1 [doxorubicin]
necrosis of HCCs in the territory of the left HAL, Day 7 (H&E) [2]: Little to no pathological changes
necrosis in the HCC within the territory of HAL, Day 1 post-treatment [2]: about 5%
total bilirubin in serum [3]: within the normal range

COc1ccc(/C=C\c2cc(OC)c(OC)c(OC)c2)cc1O [combretastatin A4]
effect on tumor vasculature [1]: nearly immediate shutdown of the tumor vasculature

Nc1n[n+]([O-])c2ccccc2[n+]1[O-] [tirapazamine]
overall response rate (CR+PR) (hepatocellular carcinoma; first 12 evaluable patients): 83%
patients with over 30% necrosis or partial response (PR) (hepatocellular carcinoma; first 12 evaluable patients): Three
response on contrast enhanced MRI at 6th week after embolization (hepatocellular carcinoma): complete response (CR)
response on contrast enhanced MRI at 6th week after embolization (hepatocellular carcinoma; listed as Tirapazamine): two treated lesions achieved CR
largest diameter of untreated lesion at 6th week follow-up (hepatocellular carcinoma; one patient, baseline 15 mm, two other lesions (26 and 10 mm) treated with tirapazamine + TAE): 9 mm
complete response (CR) by modified RECIST (hepatocellular carcinoma; single treatment of tirapazamine with TAE, first 12 patients): 6/12
tolerability of IA administration followed by hepatic artery ligation [4]: well tolerated profile
tumor necrosis at dissection on Day 7 (pale color) ([2]; drug IV + transient HAL, FIG. 2D): evident that tumor necrosis occurred
necrosis of HCCs in the territory of the left HAL, Day 7 (H&E) [2]: 90-99%
inflammatory cell infiltration at margin of necrotic tumor ([2]; tirapazamine 3 mg/kg IV + left HAL, day 7, FIG. 3 inserts): high degree of inflammatory cell infiltration; also recorded: very strong inflammatory infiltrates
necrosis in the HCC within the territory of HAL, Day 1 post-treatment [2]: more than 99%
effective dose combined with transient HAL ([2]; titration study, HBx transgenic mouse model): 3 mg/kg
total bilirubin in serum [3]: within the normal range
toxicities / dose limiting toxicities ([5]; intra-arterial (IA) via hepatic artery 5 and 10 mg/m^2 + TAE): no observed toxicities or dose limiting toxicities (DLT)
toxicities / dose limiting toxicities ([5]; systemic IV infusion 5 and 10 mg/m^2 + TAE): no observed toxicities or dose limiting toxicities (DLT)

Reference: patent US11534445B2, “Compositions and methods for immune-mediated cancer therapy” (Teclison Limited, priority 2015, dated 2022)
